Assay results as given in patent EP1030659B1 (Warner-Lambert Company LLC, priority 1997, dated 1999).

Legend:
α1-receptors = assay: Alpha-1 binding, 3H-prazocin, canine lung membranes; parameters: species or system mongrel dogs; conditions: Ki = IC50 / 1 + I/Kd, Kd from saturation analysis; unit inferred
α2-receptors = assay: Alpha-2 binding, p-125iodoclonidine, canine brain (frontal cortex) membranes; parameters: species or system mongrel dogs
Protocol: • PULMONARY ALPHA-1 AND BETA-2 RECEPTORS. The lungs of mongrel dogs were separated from cartilaginous airways and major blood vessels, weighed, chopped and placed into 10 volumes of ice-cold buffered sucrose (50 mM Tris-HCl, pH 7.4, 1 mM EGTA, 0.32 M sucrose). The tissue was then homogenized in a type PT10/35, size 89/PTA 20S, Polytron tissue homogenizer (Kinematica, Westbury, NY). The homogenate was filtered through two layers of cheesecloth, and the filtrate was dounced three times using a 55 ml Con-Torque Potter homogenizer (Eberbach Corporation, Ann Arbor, Ml). […] The supematant was re-centrifuged at 30,000 x g for 30 minutes at 4°C and the resulting pellet was washed and resuspended in 10 volumes of Tris buffer (50 mM Tris HCL, pH 7.4, 1 mM EGTA) and incubated at 37°C for 30 minutes in a shaking water bath. The suspension was centrifuged at 4°C at 30,000 x g for 30 minutes and the resulting pellet washed in 10 volumes of Tris buffer for a total of three additional centrifugations and washes. […] Protein concentration was determined by the Lowry method and the final suspension was adjusted to 10 mg of protein/ml, aliquoted and stored at -90°C. Particulates were also prepared for β2 receptors using the identical procedure except the final protein concentration was adjusted to 0.1 mg/ml. • BRAIN ALPHA-2 RECEPTORS: Membranes of mongrel dogs were harvested from the canine frontal cortex and prepared as described above with respect to the lungs, except that the final membrane protein concentration was adjusted to 0.5 mg/ml.
Nonspecific binding was determined for each concentration point in separate incubations using 10 µM phentolamine. Each experimental point was determined in triplicate. […] All binding assay incubations were terminated by rapid dilution with 2 ml of ice-cold wash buffer (50 mM Tris-HCl, pH 7.4) and filtration through FP-100 Whatman GF/B fired filters (Biomedical Research & Development Lab, Gaithersburg, MD) using a Brandel receptor-binding harvester. The filters were washed twice more with 4 ml of wash buffer and then added to 6 ml Cytoscint (ICN, Costa Mesa CA) for liquid scintillation counting (Barnes et al., 23 MOL. PHARMACOL. 570-75 (1983)). […] Nonspecific binding was determined in separate incubations in the presence of 10 µM phentolamine. The final concentration of p-iodoclonidine was 44-45 pM in competition studies and between 50 pM and 10 nM in saturation experiments. Bound and free p-^125 iodoclonidine were separated and the bound quantitated as described below for the ICYP assays. […] Nonspecific binding was determined in separate incubations in the presence of 2 µM d,I-propranolol. Each experimental point was determined in triplicate. […] Incubations were terminated as described above for the α1 assays. Filters were placed into polyethylene tubes and the bound ligand was determined by gamma spectrometry(Sano et al., 52 LIFE SCIENCES 1063-70 (1993)).
All data were analyzed with the aid of microcomputer nonlinear curve fitting programs (PRISM 2.0, Graphpad Software, San Diego CA).
The receptors resident in each of the three membrane preparations were evaluated by standard saturation analysis following the addition of increasing concentrations of the appropriate radioligand.
The radioligand added for subsequent α2-displacement assays was adjusted to evaluate only the high affinity receptor. Contributions from p-iodoclonidine binding to imidazoline receptors in the α2- displacement assay was evaluated with epinephrine.

Male Swiss-Webster mice [1] = assay: Locomotor stimulant effects (horizontal locomotor activity); assay type: in vivo; conditions: i.p.
[2] = Dosage required to raise mean arterial pressure (MAP) by 10% in dogs; assay type: in vivo; conditions: experimentally determined
Protocol: (§1) Nasal airway pressure was measured using a Validyne pressure transducer (Validyne Engineering, Northridge, CA) with a 2.25 cm H2O range membrane connected to a multipen recorder (Grass Instruments, Quincy, MA). Air was passed through an in-line direct measure flow meter (Gilmont Instruments, Barrington, IL) connected to the nasal opening cannula. Pressure was measured in the line with a constant flow rate (150 ml/min) of air. Drugs were directly injected into the jugular vein using a 30 gauge needle. All injections were of a constant 0.1 ml volume. In the congestion challenged groups congestion was achieved by an intranasal administration of histamine (50 mM, 0.02 ml/nostril). The histamine was expelled after 2 minutes with a short nasal cannula airflow and subsequent enantiomeric drug doses were directly injected into the jugular vein. The dosage chosen for each drug was the amount needed to increase the mean arterial pressure (MAP) of the animal by 10%; this dosage served as the "100%" dose for the initial nasal airway studies. […] The dosage required for rats was calculated by proportionately adjusting the experimentally determined dog dosage to account for the lesser weight of the rats.

[3] = Rat dosage calculated from the dog dosage that raises MAP by 10%; assay type: in vivo; conditions: calculated from the dog dosage by proportionately decreasing for the lesser weight of the rat; absolute dosage
Protocol: as §1

[4] = Nasal airway pressure (decongestant activity) in normal and histamine-challenged rats; assay type: in vivo, Sprague Dawley rats; conditions: for Mean Decrease in Nasal Airway Pressure: mean ± standard error; for Post Drug nasal airway pressure: 100% dose into the jugular vein; for %Change in nasal airway pressure: 100% dose
[5] = Mean arterial blood pressure after the 75% dose in rats
Male Swiss-Webster mice [6] = assay: H1 antihistamine (triprolidine) interaction studies, locomotor activity; conditions: pretreatment with 0.01, 0.1, or 1.0 mg/kg triprolidine 20 minutes before the sympathomimetic

Structure (SMILES): CN[C@@H](C)[C@H](O)c1ccccc1 [(-)-ephedrine]
- Ki (α1-receptors): 47 µM
- ED50 (Male Swiss-Webster mice [1]; Mus musculus, ip, dose resulting in ½ the maximal stimulant effect, read-out: Stimulation Potency (ED50)): 38.2 mg/kg
- locomotor stimulant effects, time course (in words) (Male Swiss-Webster mice [1]; 2-hour session): Dose dependent increases in locomotor activity of slower onset and longer duration
- Dosage of Enantiomer, Dog: dosage required to raise MAP by 10% [2]: 100 µg/kg
- Dosage of Enantiomer, Rat [3]: 30 µg
- Mean Decrease in Nasal Airway Pressure ([4]; 5% of the dose that increased canine resting mean arterial pressure 10%, rats): -1.0 ± 0.8
- Mean Decrease in Nasal Airway Pressure ([4]; 10% of the dose that increased canine resting mean arterial pressure 10%, rats): -2.5 ± 1.5
- Mean Decrease in Nasal Airway Pressure ([4]; 25% of the dose that increased canine resting mean arterial pressure 10%, rats): -3.6 ± 1.9
- Mean Decrease in Nasal Airway Pressure ([4]; 50% of the dose that increased canine resting mean arterial pressure 10%, rats): -1.9 ± 2.0
- effect on normal airway decongestion (in words) ([4]; 75% dose, rats): approximately the same efficacious effect on normal airway decongestion
- Post Drug nasal airway pressure ([4]; histamine-challenged rats (50 mM, 0.02 ml/nostril)): 6.4 ±0.6 mm water
- %Change in nasal airway pressure ([4]; histamine-challenged rats, relative to post-histamine level): -21.8 ±3.5%
- Post Drug nasal airway pressure ([4]; non-histamine-challenged rats): 6 ± 0.5 mm H2O
- %Change in nasal airway pressure ([4]; non-histamine-challenged rats, relative to control): -14 ± 3.4%
- increase in blood pressure (in words) [5]: slightly greater (though significant) increase in blood pressure than (+)-ephedrine
- interaction with triprolidine pretreatment (central nervous system stimulation, horizontal movement) (Male Swiss-Webster mice [6]): increased horizontal movement
